This assay addresses SIK2 (Homo sapiens (Human), UniProt Q9H0K1). Put plainly: SIK2 Enzymatic Assay Version 2 (High ATP). The class given is biochemical. The note with it: 3 mM ATP and 200 μM HDAC5tide final, ADP-Glo Max luminescence. In short, it runs like this: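 Luminescent ADP-Glo Max read-out: depletion reagent 2 h, then detection reagent 1 h. Before the reaction, compounds were incubated 30 min with enzyme added at 6 nM (twice final concentration), with all steps at room temperature.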
For orientation: In ADP-Glo the light output rises with the ADP produced.
Sequence of SIK2 (Q9H0K1 whole entry, species assumed): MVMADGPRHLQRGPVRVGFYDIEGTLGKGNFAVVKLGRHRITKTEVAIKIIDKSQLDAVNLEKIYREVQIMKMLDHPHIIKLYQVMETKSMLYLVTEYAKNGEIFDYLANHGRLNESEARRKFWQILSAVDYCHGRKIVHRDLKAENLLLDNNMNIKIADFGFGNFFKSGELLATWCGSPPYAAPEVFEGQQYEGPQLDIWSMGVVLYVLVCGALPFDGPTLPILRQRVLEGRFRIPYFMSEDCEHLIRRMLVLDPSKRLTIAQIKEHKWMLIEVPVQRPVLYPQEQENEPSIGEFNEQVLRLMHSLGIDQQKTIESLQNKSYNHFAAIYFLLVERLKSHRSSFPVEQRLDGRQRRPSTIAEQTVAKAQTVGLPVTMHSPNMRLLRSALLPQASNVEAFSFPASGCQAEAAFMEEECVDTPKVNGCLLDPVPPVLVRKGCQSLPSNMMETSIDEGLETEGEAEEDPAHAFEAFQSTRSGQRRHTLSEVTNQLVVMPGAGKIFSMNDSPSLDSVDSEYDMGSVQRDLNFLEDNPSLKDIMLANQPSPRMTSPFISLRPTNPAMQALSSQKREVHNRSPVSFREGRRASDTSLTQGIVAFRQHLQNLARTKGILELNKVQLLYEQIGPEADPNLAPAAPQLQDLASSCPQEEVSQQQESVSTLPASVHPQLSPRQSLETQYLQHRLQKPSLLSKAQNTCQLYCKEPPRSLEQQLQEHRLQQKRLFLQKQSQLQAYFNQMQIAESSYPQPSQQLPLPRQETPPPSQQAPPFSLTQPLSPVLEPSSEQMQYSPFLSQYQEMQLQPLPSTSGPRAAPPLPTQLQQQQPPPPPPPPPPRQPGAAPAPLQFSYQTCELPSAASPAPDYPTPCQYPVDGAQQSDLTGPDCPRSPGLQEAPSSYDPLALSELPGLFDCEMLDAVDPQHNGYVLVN
One may read the IC50 as the point on the concentration scale where inhibition reaches its midpoint. `CN1CC[C@@H]1COc1cnn(C)c1-c1ccn2nc(Nc3cnc(C(F)(F)F)cn3)cc2c1` [Example 117, 5-[2-methyl-4-[[(2R)-1-methylazetidin-2-yl]methoxy]pyrazol-3-yl]-N-[5-(trifluoromethyl)pyrazin-2-yl]pyrazolo[1,5-a]pyridin-2-amine] showed an IC50 of 8.8 nM.
The same measure for `CN1CC[C@H](Oc2cnn(C)c2-c2ccc3nc(NC(=O)C4CC4)cn3c2)C1` [Example 472, N-[6-[2-methyl-4-[(3S)-1-methylpyrrolidin-3-yl]oxy-pyrazol-3-yl]imidazo[1,2-a]pyridin-2-yl]cyclopropanecarboxamide]: 106 nM.
In the case of `CNC(=O)c1cnc(Nc2cc3cc(-c4c(OC[C@H]5CCN5C)cnn4C)ccn3n2)cn1` [Example 133, N-methyl-5-[[5-[2-methyl-4-[[(2R)-1-methylazetidin-2-yl]methoxy]pyrazol-3-yl]pyrazolo[1,5-a]pyridin-2-yl]amino]pyrazine-2-carboxamide] it was 7.1 nM; in that of `CO[C@]1(COc2cnn(C(F)F)c2-c2ccn3nc(Nc4cc(C)nc(C)n4)cc3c2)CCNC1` (single isomer, unassigned) [Example 261, (*R)-5-(1-(difluoromethyl)-4-((3-methoxypyrrolidin-3-yl)methoxy)-1H-pyrazol-5-yl)-N-(2,6-dimethylpyrimidin-4-yl)pyrazolo[1,5-a]pyridin-2-amine], 5.5 nM.
The same measure for `CCC1(COc2cnn(C)c2-c2ccn3nc(NC(=O)C4CC4)cc3c2)CN(C)C1` [Example 408, N-[5-[4-[(3-ethyl-1-methyl-azetidin-3-yl)methoxy]-2-methyl-pyrazol-3-yl]pyrazolo[1,5-a]pyridin-2-yl]cyclopropanecarboxamide]: 79.5 nM.
For `Cc1onc(O[C@@H]2CN[C@H](C)C2)c1-c1ccn2nc(NC(=O)C3CC3)cc2c1` [Example 85, N-[5-[5-methyl-3-[(3S,5R)-5-methylpyrrolidin-3-yl]oxy-isoxazol-4-yl]pyrazolo[1,5-a]pyridin-2-yl]cyclopropanecarboxamide], the IC50 was 32.1 nM.
As for `Cc1cnc(Nc2cc3cc(-c4c(CO[C@H]5CN(C)C[C@@H]5C)cnn4C)ccn3n2)cn1` (stereo in doubt) [Example 469, (rac-trans)-5-[4-[(1,4-dimethylpyrrolidin-3-yl)oxymethyl]-2-methyl-pyrazol-3-yl]-N-(5-methylpyrazin-2-yl)pyrazolo[1,5-a]pyridin-2-amine], the 50% inhibitory concentration (IC50) came to 27.3 nM.
The same measure for `CCN1CC[C@@H]1COc1cnn(C)c1-c1ccn2nc(Nc3cnc(C)c(C)n3)cc2c1` [Example 22, (R)—N-(5,6-Dimethylpyrazin-2-yl)-5-(4-((1-ethylazetidin-2-yl)methoxy)-1-methyl-1H-pyrazol-5-yl)pyrazolo[1,5-a]pyridin-2-amine]: less than 0.847 nM; for `CN1CC[C@H](Oc2cnn(C)c2-c2ccn3nc(Nc4ccc(C(F)(F)F)cn4)cc3c2)C1` [Example 339, 5-[2-methyl-4-[(3S)-1-methylpyrrolidin-3-yl]oxy-pyrazol-3-yl]-N-[5-(trifluoromethyl)-2-pyridyl]pyrazolo[1,5-a]pyridin-2-amine]: 68.5 nM.
In turn, `CN1CC[C@H](Oc2cnn(C)c2-c2ccn3nc(Nc4ccnc(C(F)(F)F)n4)cc3c2)C1` [Example 458, 5-[2-methyl-4-[(3S)-1-methylpyrrolidin-3-yl]oxy-pyrazol-3-yl]-N-[2-(trifluoromethyl)pyrimidin-4-yl]pyrazolo[1,5-a]pyridin-2-amine] gave an IC50 of 167 nM.
In the case of `CN1CC[C@@H]1COc1cnn(C)c1-c1ccn2nc(Nc3cn(C)nn3)cc2c1` [Example 124, 5-[2-methyl-4-[[(2R)-1-methylazetidin-2-yl]methoxy]pyrazol-3-yl]-N-(1-methyltriazol-4-yl)pyrazolo[1,5-a]pyridin-2-amine] it was 14.9 nM; in that of `Cc1cc(Nc2cc3cc(-c4c(O[C@@H]5CN[C@H](C)C5)noc4C)ccn3n2)nc(C)n1` [Example 90, N-(2,6-dimethylpyrimidin-4-yl)-5-[5-methyl-3-[(3S,5R)-5-methylpyrrolidin-3-yl]oxy-isoxazol-4-yl]pyrazolo[1,5-a]pyridin-2-amine], 14.4 nM.
The same measure for `Cc1onc(OC[C@@H]2CCCN2C)c1-c1ccn2nc(NC(=O)C3CC3)cc2c1` [Example 500, N-[5-[5-methyl-3-[[(2S)-1-methylpyrrolidin-2-yl]methoxy]isoxazol-4-yl]pyrazolo[1,5-a]pyridin-2-yl]cyclopropanecarboxamide]: 431 nM.
`CO[C@@]1(COc2noc(C)c2-c2ccn3nc(NC(=O)C4CC4)cc3c2)CCNC1` (single isomer, unassigned) [Example 209, (*S)—N-(5-(3-((3-methoxypyrrolidin-3-yl)methoxy)-5-methylisoxazol-4-yl)pyrazolo[1,5-a]pyridin-2-yl)cyclopropanecarboxamide] yielded an IC50 of 14.9 nM.
Molecule `C[C@@H]1CN(C)[C@H]1COc1cnn(C)c1-c1ccn2nc(NC(=O)C3CC3)cc2c1` [Example 24, N-[5-[4-[[(2R,3R)-1,3-Dimethylazetidin-2-yl]methoxy]-2-methyl-pyrazol-3-yl]pyrazolo[1,5-a]pyridin-2-yl]cyclopropanecarboxamide] registered a half-maximal inhibitory concentration (IC50) of 34.9 nM.
In the case of `Cc1cc(Nc2cc3cc(-c4c(OC[C@H]5CCN5C)cnn4C)ccn3n2)nc2c1CCC2` [Example 136, N-(4-methyl-6,7-dihydro-5H-cyclopenta[b]pyridin-2-yl)-5-[2-methyl-4-[[(2R)-1-methylazetidin-2-yl]methoxy]pyrazol-3-yl]pyrazolo[1,5-a]pyridin-2-amine], the IC50 worked out at 2.3 nM.
The same measure for `Cc1cc(Nc2cc3cc(-c4c(OC[C@H]5CCCN5C)cnn4C)ccn3n2)nc(C(F)(F)F)n1` [Example 283, 5-[2-methyl-4-[[(2R)-1-methylpyrrolidin-2-yl]methoxy]pyrazol-3-yl]-N-[6-methyl-2-(trifluoromethyl)pyrimidin-4-yl]pyrazolo[1,5-a]pyridin-2-amine]: 3.4 nM.
The same measure for `CCC1(OCc2cnn(C)c2-c2ccn3nc(NC(=O)C4CC4)cc3c2)CNC1` [Example 193, N-[5-[4-[(3-ethylazetidin-3-yl)oxymethyl]-2-methyl-pyrazol-3-yl]pyrazolo[1,5-a]pyridin-2-yl]cyclopropanecarboxamide]: 21.2 nM.
The same measure for `CN1C[C@@H](C(F)(F)F)[C@@H]1COc1cnn(C)c1-c1ccn2nc(NC(=O)C3CC3)cc2c1` [Example 10, N-[5-[2-methyl-4-[[(2R,3R)-1-methyl-3-(trifluoromethyl)azetidin-2-yl]methoxy]pyrazol-3-yl]pyrazolo[1,5-a]pyridin-2-yl]cyclopropanecarboxamide]: 988 nM; for `COCCN1CC[C@@H]1COc1cnn(C)c1-c1ccn2nc(NC(=O)C3CC3)cc2c1` [Example 243, N-[5-[4-[[(2R)-1-(2-methoxyethyl)azetidin-2-yl]methoxy]-2-methyl-pyrazol-3-yl]pyrazolo[1,5-a]pyridin-2-yl]cyclopropanecarboxamide]: 11.3 nM; for `CCN1CC[C@@H]1COc1cnn(C(F)F)c1-c1ccn2nc(Nc3ccc(C)nn3)cc2c1` [Example 480, 5-[2-(difluoromethyl)-4-[[(2R)-1-ethylazetidin-2-yl]methoxy]pyrazol-3-yl]-N-(6-methylpyridazin-3-yl)pyrazolo[1,5-a]pyridin-2-amine]: 10 nM.

Source of the values: patent US20240174662A1, “SMALL MOLECULE INHIBITORS OF SALT INDUCIBLE KINASES” (Janssen Biotech, Inc., priority 2021, published 2024).
